Data on 2 compounds can be found in patent US20230015949A1, “NEISSERIA TREATMENT USING CANNABINOIDS” (priority 2019, published 2023).

In assay [1] the test system is Neisseria gonorrhoeae. The conditions noted are these: N. gonorrhoeae ATCC 49226; in parentheses in broth microdilution columns; ranges are for agar dilution testing; cited from earlier work.
The test system of assay [2] is Neisseria meningitidis. The assay is described as follows: Broth microdilution MIC testing (Example 1). In kind it is cell-based. The note with it: Neisseria meningitidis, ATCC13090; N. meningitidis MMX 0707 / ATCC 13090; broth microdilution; read-out: MIC. How it is done:
(§1) In this study, to evaluate the spectrum of activity, cannabidiol (CBD) was profiled against Neisseria. Testing was conducted following guidelines recommended by the Clinical and Laboratory Standards Institute (CLSI, 1-4), using vancomycin, meropenem, levofloxacin, and gentamicin as comparators for testing aerobic bacteria.
(§2) Test agents were supplied by Micromyx. Stock solutions of all compounds were prepared on the first day of testing at 101× the highest test concentration using solvents recommended by CLSI. CBD was prepared fresh on each of testing.
(§3) The test organisms evaluated in this study consisted of clinical isolates from the Micromyx Repository, reference isolates from the American Type Culture Collection (ATCC; Manassas, Va.), isolates from the antibiotic resistance bank from the Centers for Disease Control and Prevention (CDC; Atlanta, Ga.), and isolates from the Network on Antimicrobial Resistance in Staphylococcus aureus (NARSA; BEI Resources, Manassas, Va.). Upon initial receipt at Micromyx, the organisms were sub-cultured onto an appropriate agar medium. Following incubation, colonies were harvested from these plates and cell suspensions prepared and frozen at −80° C. with a cryoprotectant.
(§4) Prior to testing, Neisseria was streaked onto Chocolate agar (BD; Lot No. 9228071) and incubated at 35° C. in 5% CO2 for 24 hr.
(§5) For Neisseria, a modified medium described by the ATCC as capable of supporting growth was used. This medium contains 15 g Oxoid Special Peptone, 1 g corn starch (Ward's Science; Rochester, N.Y.; Lot 39-3271), 5 g NaCl (VWR; 57897), 4 g K2HPO4 (Sigma; Lot SLBT7061), 1 g KH2PO4 (SLBC1921V), and 1% IsoVitaleX (BD; Lot 8323954) enrichment per 500 mL.
(§6) MIC values were determined using a broth microdilution procedure described by CLSI (1-4). Automated liquid handlers (Multidrop 384, Labsystems, Helsinki, Finland; Biomek 2000 and Biomek FX, Beckman Coulter, Fullerton, Calif.) were used to conduct serial dilutions and liquid transfers.
(§7) To prepare the drug mother plates, which would provide the serial drug dilutions for the replicate daughter plates, the wells of columns 2 through 12 of standard 96-well microdilution plates (Costar 3795) were filled with 150 μl of the designated diluent for each row of drug. The test article and comparator compounds (300 μl at 101× the highest concentration to be tested) were dispensed into the appropriate wells in column 1. The Biomek 2000 was then used to make 2-fold serial dilutions in the mother plates from column 1 through column 11. The wells of column 12 contained no drug and served as the organism growth control wells for the assay.
(§8) The daughter plates were loaded with 190 μL per well of the appropriate test medium for the tested organism using the Multidrop 384. The daughter plates were completed on the Biomek FX instrument which transferred 2 μL of drug solution from each well of a mother plate to the corresponding well of each daughter plate in a single step.
A standardized inoculum of each test organism was prepared per CLSI methods (1-4). The inoculum for each organism was dispensed into sterile reservoirs divided by length (Beckman Coulter), and the Biomek 2000 was used to inoculate the plates. […]
The plates for testing of aerobic organisms were stacked 3 to 4 high, covered with a sterile lid, and incubated at 35° C. and 5% CO2 for the time periods specified in CLSI (1-4). […] The MIC was read and recorded as the lowest concentration of drug that inhibited visible growth of the organism.

Assay [3] relates to Neisseria gonorrhoeae. Put plainly: Broth microdilution MIC testing (Example 1). It counts as cell-based. The note with it: Neisseria gonorrhoeae, broth microdilution, read-out: MIC. How it is done: as §1, §2, §3, §4, §5, §6, §7, §8
A standardized inoculum of each test organism was prepared per CLSI methods (1-4). The inoculum for each organism was dispensed into sterile reservoirs divided by length (Beckman Coulter), and the Biomek 2000 was used to inoculate the plates. Daughter plates were placed on the Biomek 2000 work surface in reverse orientation so that inoculation took place from low to high drug concentration. Plates were inoculated with 10 μL of the inoculum resulting in a final cell density of approximately 5×10^5 CFU/mL per well.
The plates for testing of aerobic organisms were stacked 3 to 4 high, covered with a sterile lid, and incubated at 35° C. and 5% CO2 for the time periods specified in CLSI (1-4). […] Following incubation, the microplates were removed from the incubator and viewed from the bottom using a plate viewer. […] The MIC was read and recorded as the lowest concentration of drug that inhibited visible growth of the organism.

Structures are written as SMILES. ≈ marks a conversion by molar mass, not a printed value. Where two headings read alike, the source gives them in different places.

For the compound `CC[C@H]1OC(=O)[C@H](C)[C@@H](O[C@H]2C[C@@](C)(OC)[C@@H](O)[C@H](C)O2)[C@H](C)[C@@H](O[C@@H]2O[C@H](C)C[C@H](N(C)C)[C@H]2O)[C@](C)(O)C[C@@H](C)CN(C)[C@H](C)[C@@H](O)[C@]1(C)O` [AZI, azithromycin], in assay [1], the “CLSI QC range of MIC” value is 0.25 to 1 µg/mL.
In the case of `C=C(C)C1CCC(C)=CC1c1c(O)cc(CCCCC)cc1O` (centres unmarked) [CBD, 2-[3-methyl-6-(1-methylethenyl)-2-cyclohexen-1-yl]-5-pentyl-1,3-benzenediol], the MIC in assay [2] is 0.25 µg/mL (≈ 0.795 µM); in assay [3] (ATCC49226, N. gonorrhoeae MMX 0683 / ATCC 49226, plate read at 40 hr) it was 1 µg/mL (≈ 3.18 µM); in assay [3] (N. gonorrhoeae MMX 6746), 1 µg/mL (≈ 3.18 µM); in assay [3] (N. gonorrhoeae MMX 6757, plate read at 40 hr), 2 µg/mL (≈ 6.36 µM).
